Here are results for one molecule from article PMC3670929, “Zn(II)-Chlorido Complexes of Phytohormone Kinetin and Its Derivatives Modulate Expression of Inflammatory Mediators in THP-1 Cells” (PLoS ONE, 2013).

The subject of the test is IL-1β. The test can be described thus: LPS-induced IL-1β secretion in THP-1 macrophage-like cells (ELISA). It is filed as cell-based, human. Particulars: complexes 5 µM, prednisone 1 µM, 1 h pre-treatment, 24 h after LPS. Here is the method:
To determine the influence of the tested complexes on the TNF-α and IL-1β secretions and MMPs activity, macrophage-like cells derived from the THP-1 cell line were used. The cells were cultivated as above, but were split into 24-well microtitre plates to get a concentration of 100 000 cells/mL (1 mL/well) and the differentiation to macrophages was induced by phorbol myristate acetate (PMA) as described previously. Differentiated macrophages were pre-treated for 1 h with 5 µM solutions of the tested complexes or 1 µM prednisone dissolved in DMSO [the final DMSO concentration was 0.1% (v/v)] and with the 0.1% (v/v) DMSO solution itself (the experimental group called vehicle); the given concentrations of the compounds lack the cytotoxic effect. The inflammatory response was triggered by adding 1 µg/mL Escherichia coli 0111:B4 lipopolysaccharide (LPS) (Sigma-Aldrich, Germany) dissolved in water to pre-treated macrophages, control cells were without the LPS treatment. Each experiment was performed in triplicate. Macrophages, which were pre-treated with the tested compounds for 1 h, were incubated with LPS for the next 24 h. Then, the medium was collected and the concentrations of TNF-α and IL-1β were measured by an Instant ELISA kit (eBioscience, Austria) according to the manufacturer’s manual.

As for `C[C@]12C=CC(=O)C=C1CC[C@@H]1[C@@H]2C(=O)C[C@@]2(C)[C@H]1CC[C@]2(O)C(=O)CO` [prednisone, reference compound], the “decrease of IL-1β secretion, factor in comparison with the vehicle-treated cells” value is reported as 2.42 times.
